Laboratory results reported in patent US4758518A, “D-2-haloalkanoic acid halidohydrolase” (Imperial Chemical Industries PLC, priority 1984, dated 1988).

Target: T1, D-2-HAA halidohydrolase from Pseudomonas putida NCIB 12018 (0.15 M fraction) (Pseudomonas putida, UniProt Q52086)
T1 construct: Activity towards D-2-CPA was found exclusively in the 0.15 M fraction; endogenous in cells; host or cells: Pseudomonas putida NCIB 12018 (cell-free extract from French pressure cell, fractionated on DEAE-Sephacel, 0.15 M KCl fraction)
T1 sequence (Q52086 whole entry): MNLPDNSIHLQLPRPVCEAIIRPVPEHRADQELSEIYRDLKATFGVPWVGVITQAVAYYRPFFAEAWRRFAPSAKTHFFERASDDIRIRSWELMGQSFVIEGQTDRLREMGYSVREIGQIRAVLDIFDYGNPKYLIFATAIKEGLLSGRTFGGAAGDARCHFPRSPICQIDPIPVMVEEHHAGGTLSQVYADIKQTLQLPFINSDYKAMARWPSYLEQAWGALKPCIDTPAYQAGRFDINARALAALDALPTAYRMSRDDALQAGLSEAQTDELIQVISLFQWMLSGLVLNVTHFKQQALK
Experiment: Inhibition of dehalogenation activity of the isolated D-2-HAA halidohydrolase (0.15 M DEAE-Sephacel fraction)
Format: biochemical
Details: at up to 1 M concentration of the substance; substrate (DL-2-CPA) or reaction product (lactate)
Description: Samples of the cell-free extracts were submitted in duplicate to polyacrylamide gel electrophoresis (Hardman et al, Journal of General Microbiology, 1981, Volume 123, pages 117-128). One of each pair of gels, after electrophoresis was incubated in a buffer solution containing 50 mM D-2-CPA and the other of each pair was incubated in a buffer solution containing 50 mM L-2-CPA as described in the aforesaid Hardman et al reference.
A portion (25 ml) of the cell free extract from Pseudomonas putida NCIB 12018 was loaded onto DEAE-Sephacel column (45 mm diameter, 60 cm high) pre-equilibrated with 25 mM Tris/Sulphate buffer at pH 7.5. The column was eluted with portions (200 ml) of this buffer neat and then containing successively 0.15 M, 0.2 M and 0.5 M potassium chloride at a flow rate of 100 ml/hour.
Each of the four fractions was assayed for halidohydrolase activity as described in Step 2 using L-2-CPA and D-2-CPA as substrates.
The halidohydrolase in the 0.15 M fraction has a pH optimum for activity on D-2-CPA at 8.8-9.0. It has good activity in organic (Tris/Sulphate) and inorganic (bicarbonate/carbonate) buffers, and has activity in unbuffered media, e.g. distilled water, with the pH controlled at 8.8-9.0.
The enzymatic activity is not inhibited by up to 1 M DL-2-CPA or by the products of the reaction, i.e. chloride ion and lactate, at up to 1 M concentration.

## CC(Cl)C(=O)O (racemic) [DL-2-CPA, 2-chloropropionic acid]
  inhibition of the enzymatic activity: not inhibited

## CC(O)C(=O)O (centres unmarked) [lactate]
  inhibition of the enzymatic activity: not inhibited
